PubChem BioAssay AID1996
In brackets after ≈: the same amount, converted by molar mass.

conditions: buffer; pH 7.4; 200.0 µM

| Compound | solubility kinetic |
| --- | --- |
| Cc1ccc(C)c(NC(=O)N2CCc3ccccc3C2)c1 | 18.9 µg/mL (≈ 67.4 µM) |
| CCN1CCN(c2ccc(NC(=O)c3ccco3)cc2Cl)CC1 | 45.2 µg/mL (≈ 135 µM) |
| COCC1CCCN(Cc2nc(-c3ccc4c(c3)OCO4)no2)C1 (stereo not given) | 43.4 µg/mL (≈ 131 µM) |
| CC1CCC(NC(=O)C(Cc2ccccc2)n2cccc2)CC1 (stereo not given) | 19.2 µg/mL (≈ 61.8 µM) |
| O=C(NCC(c1ccco1)N1CCCCC1)c1cccnc1 (stereo not given) | > 44.9 µg/mL |
| O=C(Nc1ccc(OC(F)(F)F)cc1)Oc1ccccc1N1CCCCC1 | 9.7 µg/mL (≈ 25.5 µM) |
| CCc1noc(C)c1C(=O)Nc1ccc(C#N)cc1 | > 38.3 µg/mL |
| CCn1c(CO)nc2c1c(=O)[nH]c(=O)n2Cc1ccccc1 | > 45 µg/mL |
| O=C(Cn1c(=O)oc2ccccc21)Nc1ccc(F)cc1 | 21.8 µg/mL (≈ 76.2 µM) |
| Cc1ccc(S(=O)(=O)N2CCNC(=O)C2)c(C)c1 | > 40.2 µg/mL |
| COc1ccc(C)cc1S(=O)(=O)NC1CCCCCC1 | 4.8 µg/mL (≈ 16.1 µM) |
| O=C(CSc1ncc(C(F)(F)F)cc1Cl)N1CCNC1=O | > 51 µg/mL |
| O=C(CSc1nc(C(F)(F)F)cc(=O)[nH]1)N1CCCC1 | > 46.1 µg/mL |
| COc1ccc(C(=O)N2CCN(CC(=O)N3CCOCC3)CC2)cc1 | 40.6 µg/mL (≈ 117 µM) |
| CCN(CC)S(=O)(=O)c1ccc(Cl)c(NC2=NCCCCC2)c1 | 32.9 µg/mL (≈ 91.9 µM) |
| O=C(CSc1ccccn1)Nc1ccc2[nH]c(=O)[nH]c2c1 | > 45.1 µg/mL |
| COc1ccc(-c2cnc(N)n2C)cc1 | 26 µg/mL (≈ 128 µM) |
| C[N+]1(C)[C@@H]2CC[C@H]1CC(OC(=O)C(CO)c1ccccc1)C2.O=[N+]([O-])[O-] (stereo not given in full) | > 55 µg/mL |
| CN(C)CC[n+]1ccc(C(=O)c2ccccc2)cc1.Cl.[Cl-] | > 49.1 µg/mL |
| O=C(c1cc(Cl)ccc1Cl)N1CCN(Cc2ccccc2)CC1 | > 52.4 µg/mL |

| Compound | solubility kinetic |
| --- | --- |
| Cc1ccc(C(CNC(=O)c2ccco2)N2CCN(C)CC2)cc1 (stereo not given) | > 49.1 µg/mL |
| Cc1ccc(NC(=O)COCC(=O)Nc2ccc(C)cc2)cc1 | 3.1 µg/mL (≈ 9.92 µM) |
| CO/N=C(\CCC(=O)O)c1cccs1 | > 32 µg/mL |
| CCC1(C)NC(C(=O)O)Cc2c1[nH]c1ccccc21 (stereo not given) | > 38.7 µg/mL |
| Nc1ccccc1C(=O)Nc1cccc2ccccc12 | 24.7 µg/mL (≈ 94.2 µM) |
| O=C(Cn1nc(Cl)nc1Cl)c1ccc([N+](=O)[O-])cc1 | > 45.2 µg/mL |
| CC(C(=O)Nc1ccccc1)N(C)Cc1cccs1 (stereo not given) | 33.6 µg/mL (≈ 122 µM) |
| O=S(=O)(NC(=S)Nc1ccccc1)c1ccc(F)cc1 | > 46.6 µg/mL |
| CC(=O)c1c(C)[nH]c(C(=O)NCCc2c[nH]c3ccccc23)c1C | 1.4 µg/mL (≈ 4.33 µM) |
| N#Cc1ccc(NCC(=O)Nc2ccc3c(c2)OCCO3)cc1 | 29.6 µg/mL (≈ 95.7 µM) |
| O=C(Nc1ccccc1O)c1ccc2c(c1)C(=O)N(Cc1ccco1)C2=O | 1.3 µg/mL (≈ 3.59 µM) |
| O=C(NCCCN1CCCC1=O)c1cc2c(s1)CCCCC2 | > 48.1 µg/mL |
| Cc1cc(NS(=O)(=O)c2cc(Cl)sc2Cl)no1 | > 47 µg/mL |
| Cc1cc(-c2ccc(S(=O)(=O)N3CCCCC3)s2)on1 | 2.6 µg/mL (≈ 8.32 µM) |
| Br.Fc1ccccc1CNCC1CCCO1 (stereo not given) | 43.1 µg/mL |
| N#Cc1cccc(CSc2ncnc(N)n2)c1 | > 36.5 µg/mL |
| COc1ccc(C2CC(=O)C(C=NCC(C)C)=C(O)C2)cc1 (stereo not given) | 40.6 µg/mL (≈ 135 µM) |
| COc1ccccc1NS(=O)(=O)c1cc(NC(=O)COc2ccccc2)ccc1N1CCOCC1 | 8.1 µg/mL (≈ 16.3 µM) |
| N=C1/C(=C/c2cccn2Cc2ccc(F)cc2)C(=O)N=C2SC=CN12 | < 0.2 µg/mL |
| O=C(Oc1ccc(OC(=O)N2CCCCC2)cc1)N1CCCCC1 | 1.1 µg/mL (≈ 3.31 µM) |

| Compound | solubility kinetic |
| --- | --- |
| NC(=O)C1Cc2ccccc2CN1S(=O)(=O)c1cccs1 (stereo not given) | > 48.4 µg/mL |
| Cc1cc(NC(=O)CN(C)C)c([N+](=O)[O-])cc1C | 4.1 µg/mL (≈ 16.3 µM) |
| CC(=NCCC1=CCCCC1)c1c(O)n(-c2ccccc2)c(=O)[nH]c1=O | 10 µg/mL (≈ 28.3 µM) |
| CCN(Cc1ccncc1)C(=O)Cc1cccs1 | > 39.1 µg/mL |
| CCCOP(=O)(c1ccc(N(C)C)cc1)C(O)c1cc(OC)ccc1OC (stereo not given) | > 59 µg/mL |
| Cc1cc2[nH]cnc2c([N+](=O)[O-])c1C | > 28.7 µg/mL |
| CS(=O)(=O)N(CC(=O)N1CCCC1)Cc1ccccc1 | > 44.5 µg/mL |
| Cc1ccccc1Oc1ccccc1N | 3.9 µg/mL (≈ 19.6 µM) |
| Cc1ccc(C(=O)OCC(=O)NCCc2ccccc2)cc1C | 11.3 µg/mL (≈ 36.3 µM) |
| O=C(Nc1ccnc(-c2cccnc2)n1)c1cccs1 | 2.9 µg/mL (≈ 10.3 µM) |
| CC1Cc2ccccc2N1S(=O)(=O)c1cnc(Cl)c(Cl)c1 (stereo not given) | 0.6 µg/mL (≈ 1.75 µM) |
| O=C(CN1C(=O)c2ccccc2S1(=O)=O)c1ccc(O)c(O)c1 | > 50 µg/mL |
| Cc1ccc2c(COC(=O)CNS(=O)(=O)c3ccccc3)cc(=O)oc2c1 | 21.6 µg/mL (≈ 55.8 µM) |
| Cc1ccc(S(=O)(=O)Nc2nc(-c3ccccc3)cs2)cc1 | > 49.6 µg/mL |
| CCc1cccc(OC2OC(CO)C(O)C(O)C2NC(C)=O)c1 (stereo not given) | > 48.8 µg/mL |
| CCOC(=O)c1ccc(S(=O)(=O)NC2CC2)cc1 | 32.4 µg/mL (≈ 120 µM) |
| O=C(COC(=O)c1ccncc1)c1ccc(Cl)c(Cl)c1 | 39.8 µg/mL (≈ 128 µM) |
| CCCc1c(O)nc(SCC(=O)NCc2ccco2)[nH]c1=O | > 48.5 µg/mL |
| Cc1ccc(Cl)c(NC(=O)CN2CCN(C=O)CC2)c1 | 36.6 µg/mL (≈ 124 µM) |
| COc1ccc([N+](=O)[O-])c(OC)c1C(=O)NC(=O)Nc1c(C)cccc1C | 0.9 µg/mL (≈ 2.41 µM) |
